Results as given in the supplement of paper PMC11665569.

Experiments:
Details in all cases: treatment time: 5 days
H1792 = test system: H1792
Procedure: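 CCK-8 viability of KRAS G12C-mutant cancer cell lines transfected with control, YAP/TAZ or TEAD1-4 siRNAs and treated with KRAS G12C inhibitors for 5 days; IC50 fitted in Prism after normalising absorbance at 450 nm to vehicle control.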

H2030 = experiment: relative viability (fraction of vehicle control); higher = more viable / less inhibited
Procedure: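 CCK-8 viability of H2030 cells transfected with control, YAP/TAZ or TEAD1-4 siRNAs and treated with KRAS G12C inhibitors for 5 days. Values are normalised to vehicle control.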

SW1573 = experiment: as above
Procedure: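 CCK-8 viability of SW1573 cells transfected with control, YAP/TAZ or TEAD1-4 siRNAs and treated with KRAS G12C inhibitors for 5 days. Values are normalised to vehicle control.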

C=CC(=O)N1CCN(c2ncnc3c(F)c(-c4c(O)cccc4F)c(Cl)cc23)CC1 [ARS1620]
Details | IC50 (cell viability, 5 days), H1792 [µM] | relative viability, H2030 | relative viability, SW1573
log10 concentration (uM): 0, siRNA knockdown: TEAD1-4 siRNA 1 | – | 0.502 | 0.394
log10 concentration (uM): 0, siRNA knockdown: TEAD1-4 siRNA 2 | – | 0.522 | 0.45
log10 concentration (uM): 0, siRNA knockdown: YAP/TAZ siRNA 1 | – | 0.521 | 0.174
log10 concentration (uM): 0, siRNA knockdown: YAP/TAZ siRNA 2 | – | 0.482 | 0.156
log10 concentration (uM): 0, siRNA knockdown: negative control siRNA | – | 0.948 | 0.929
log10 concentration (uM): 0.39794, siRNA knockdown: TEAD1-4 siRNA 1 | – | 0.429 | 0.297
log10 concentration (uM): 0.39794, siRNA knockdown: TEAD1-4 siRNA 2 | – | 0.365 | 0.376
log10 concentration (uM): 0.39794, siRNA knockdown: YAP/TAZ siRNA 1 | – | 0.499 | 0.172
log10 concentration (uM): 0.39794, siRNA knockdown: YAP/TAZ siRNA 2 | – | 0.448 | 0.15
log10 concentration (uM): 0.39794, siRNA knockdown: negative control siRNA | – | 0.927 | 0.952
log10 concentration (uM): 0.69897, siRNA knockdown: TEAD1-4 siRNA 1 | – | 0.257 | 0.273
log10 concentration (uM): 0.69897, siRNA knockdown: TEAD1-4 siRNA 2 | – | 0.256 | 0.381
log10 concentration (uM): 0.69897, siRNA knockdown: YAP/TAZ siRNA 1 | – | 0.369 | 0.186
log10 concentration (uM): 0.69897, siRNA knockdown: YAP/TAZ siRNA 2 | – | 0.386 | 0.175
log10 concentration (uM): 0.69897, siRNA knockdown: negative control siRNA | – | 0.874 | 0.952
log10 concentration (uM): 1, siRNA knockdown: TEAD1-4 siRNA 1 | – | 0.151 | 0.189
log10 concentration (uM): 1, siRNA knockdown: TEAD1-4 siRNA 2 | – | 0.168 | 0.351
log10 concentration (uM): 1, siRNA knockdown: YAP/TAZ siRNA 1 | – | 0.216 | 0.2
log10 concentration (uM): 1, siRNA knockdown: YAP/TAZ siRNA 2 | – | 0.261 | 0.182
log10 concentration (uM): 1, siRNA knockdown: negative control siRNA | – | 0.742 | 0.94
log10 concentration (uM): 1.301029996, siRNA knockdown: TEAD1-4 siRNA 1 | – | 0.0456 | 0.0763
log10 concentration (uM): 1.301029996, siRNA knockdown: TEAD1-4 siRNA 2 | – | 0.0819 | 0.233
log10 concentration (uM): 1.301029996, siRNA knockdown: YAP/TAZ siRNA 1 | – | 0.114 | 0.136
log10 concentration (uM): 1.301029996, siRNA knockdown: YAP/TAZ siRNA 2 | – | 0.14 | 0.139
log10 concentration (uM): 1.301029996, siRNA knockdown: negative control siRNA | – | 0.217 | 0.464
log10 concentration (uM): -0.30103, siRNA knockdown: TEAD1-4 siRNA 1 | – | 0.562 | 0.413
log10 concentration (uM): -0.30103, siRNA knockdown: TEAD1-4 siRNA 2 | – | 0.478 | 0.47
log10 concentration (uM): -0.30103, siRNA knockdown: YAP/TAZ siRNA 1 | – | 0.627 | 0.236
log10 concentration (uM): -0.30103, siRNA knockdown: YAP/TAZ siRNA 2 | – | 0.641 | 0.209
log10 concentration (uM): -0.30103, siRNA knockdown: negative control siRNA | – | 0.985 | 0.908
log10 concentration (uM): -0.60206, siRNA knockdown: TEAD1-4 siRNA 1 | – | 0.646 | 0.655
log10 concentration (uM): -0.60206, siRNA knockdown: TEAD1-4 siRNA 2 | – | 0.616 | 0.614
log10 concentration (uM): -0.60206, siRNA knockdown: YAP/TAZ siRNA 1 | – | 0.695 | 0.29
log10 concentration (uM): -0.60206, siRNA knockdown: YAP/TAZ siRNA 2 | – | 0.731 | 0.306
log10 concentration (uM): -0.60206, siRNA knockdown: negative control siRNA | – | 0.992 | 0.964
log10 concentration (uM): -1, siRNA knockdown: TEAD1-4 siRNA 1 | – | 0.742 | 0.683
log10 concentration (uM): -1, siRNA knockdown: TEAD1-4 siRNA 2 | – | 0.639 | 0.614
log10 concentration (uM): -1, siRNA knockdown: YAP/TAZ siRNA 1 | – | 0.753 | 0.41
log10 concentration (uM): -1, siRNA knockdown: YAP/TAZ siRNA 2 | – | 0.78 | 0.417
log10 concentration (uM): -1, siRNA knockdown: negative control siRNA | – | 0.997 | 0.976
log10 concentration (uM): -2, siRNA knockdown: TEAD1-4 siRNA 1 | – | 0.922 | 0.9354
log10 concentration (uM): -2, siRNA knockdown: TEAD1-4 siRNA 2 | – | 1.12 | 1.01
log10 concentration (uM): -2, siRNA knockdown: YAP/TAZ siRNA 1 | – | 0.976 | 0.817
log10 concentration (uM): -2, siRNA knockdown: YAP/TAZ siRNA 2 | – | 0.922 | 0.82
log10 concentration (uM): -2, siRNA knockdown: negative control siRNA | – | 1.02 | 1.02
siRNA knockdown (Con = control): Con | 1.96 | – | –
siRNA knockdown (Con = control): YAP_WWTR1_si1 | 0.59 | – | –
siRNA knockdown (Con = control): YAP_WWTR1_si2 | 0.472 | – | –

C=CC(=O)N1CCN(c2nc(=O)n(-c3c(C)ccnc3C(C)C)c3nc(-c4c(O)cccc4F)c(F)cc23)[C@@H](C)C1 [AMG510]
Details | IC50 (cell viability, 5 days), H1792 [µM] | relative viability, H2030 | relative viability, SW1573
log10 concentration (uM): 0, siRNA knockdown: TEAD1-4 siRNA 1 | – | 0.446 | 0.313
log10 concentration (uM): 0, siRNA knockdown: TEAD1-4 siRNA 2 | – | 0.411 | 0.433
log10 concentration (uM): 0, siRNA knockdown: YAP/TAZ siRNA 1 | – | 0.25 | 0.262
log10 concentration (uM): 0, siRNA knockdown: YAP/TAZ siRNA 2 | – | 0.224 | 0.182
log10 concentration (uM): 0, siRNA knockdown: negative control siRNA | – | 0.714 | 0.809
log10 concentration (uM): 1, siRNA knockdown: TEAD1-4 siRNA 1 | – | 0.345 | 0.397
log10 concentration (uM): 1, siRNA knockdown: TEAD1-4 siRNA 2 | – | 0.325 | 0.515
log10 concentration (uM): 1, siRNA knockdown: YAP/TAZ siRNA 1 | – | 0.257 | 0.554
log10 concentration (uM): 1, siRNA knockdown: YAP/TAZ siRNA 2 | – | 0.283 | 0.357
log10 concentration (uM): 1, siRNA knockdown: negative control siRNA | – | 0.56 | 0.782
log10 concentration (uM): 1.301029996, siRNA knockdown: TEAD1-4 siRNA 1 | – | 0.193 | 0.138
log10 concentration (uM): 1.301029996, siRNA knockdown: TEAD1-4 siRNA 2 | – | 0.209 | 0.288
log10 concentration (uM): 1.301029996, siRNA knockdown: YAP/TAZ siRNA 1 | – | 0.148 | 0.337
log10 concentration (uM): 1.301029996, siRNA knockdown: YAP/TAZ siRNA 2 | – | 0.179 | 0.257
log10 concentration (uM): 1.301029996, siRNA knockdown: negative control siRNA | – | 0.403 | 0.461
log10 concentration (uM): -1, siRNA knockdown: TEAD1-4 siRNA 1 | – | 0.504 | 0.338
log10 concentration (uM): -1, siRNA knockdown: TEAD1-4 siRNA 2 | – | 0.556 | 0.365
log10 concentration (uM): -1, siRNA knockdown: YAP/TAZ siRNA 1 | – | 0.181 | 0.164
log10 concentration (uM): -1, siRNA knockdown: YAP/TAZ siRNA 2 | – | 0.181 | 0.111
log10 concentration (uM): -1, siRNA knockdown: negative control siRNA | – | 0.737 | 0.783
log10 concentration (uM): -1.30103, siRNA knockdown: TEAD1-4 siRNA 1 | – | 0.514 | 0.346
log10 concentration (uM): -1.30103, siRNA knockdown: TEAD1-4 siRNA 2 | – | 0.445 | 0.421
log10 concentration (uM): -1.30103, siRNA knockdown: YAP/TAZ siRNA 1 | – | 0.207 | 0.183
log10 concentration (uM): -1.30103, siRNA knockdown: YAP/TAZ siRNA 2 | – | 0.212 | 0.147
log10 concentration (uM): -1.30103, siRNA knockdown: negative control siRNA | – | 0.773 | 0.792
log10 concentration (uM): -2, siRNA knockdown: TEAD1-4 siRNA 1 | – | 0.773 | 0.562
log10 concentration (uM): -2, siRNA knockdown: TEAD1-4 siRNA 2 | – | 0.606 | 0.502
log10 concentration (uM): -2, siRNA knockdown: YAP/TAZ siRNA 1 | – | 0.348 | 0.323
log10 concentration (uM): -2, siRNA knockdown: YAP/TAZ siRNA 2 | – | 0.333 | 0.244
log10 concentration (uM): -2, siRNA knockdown: negative control siRNA | – | 0.883 | 0.886
log10 concentration (uM): -2.30103, siRNA knockdown: TEAD1-4 siRNA 1 | – | 0.837 | 0.672
log10 concentration (uM): -2.30103, siRNA knockdown: TEAD1-4 siRNA 2 | – | 0.67 | 0.725
log10 concentration (uM): -2.30103, siRNA knockdown: YAP/TAZ siRNA 1 | – | 0.471 | 0.437
log10 concentration (uM): -2.30103, siRNA knockdown: YAP/TAZ siRNA 2 | – | 0.457 | 0.37
log10 concentration (uM): -2.30103, siRNA knockdown: negative control siRNA | – | 0.909 | 0.934
log10 concentration (uM): -3, siRNA knockdown: TEAD1-4 siRNA 1 | – | 0.939 | 0.815
log10 concentration (uM): -3, siRNA knockdown: TEAD1-4 siRNA 2 | – | 0.875 | 0.893
log10 concentration (uM): -3, siRNA knockdown: YAP/TAZ siRNA 1 | – | 0.812 | 0.615
log10 concentration (uM): -3, siRNA knockdown: YAP/TAZ siRNA 2 | – | 0.688 | 0.587
log10 concentration (uM): -3, siRNA knockdown: negative control siRNA | – | 0.969 | 1
log10 concentration (uM): -4, siRNA knockdown: TEAD1-4 siRNA 1 | – | 1.05 | 0.98
log10 concentration (uM): -4, siRNA knockdown: TEAD1-4 siRNA 2 | – | 0.914 | 0.974
log10 concentration (uM): -4, siRNA knockdown: YAP/TAZ siRNA 1 | – | 1.09 | 0.969
log10 concentration (uM): -4, siRNA knockdown: YAP/TAZ siRNA 2 | – | 1.04 | 0.928
log10 concentration (uM): -4, siRNA knockdown: negative control siRNA | – | 0.955 | 1.02
siRNA knockdown (Con = control): Con | 6.33 | – | –
